Experimental data from US7344734B2, “Powder formulation” (Rijksuniversiteit Groningen, priority 2000, dated 2008).

Key:
Assay type in all cases: physicochemical
[1] = Dry laser diffraction analysis of Colistin powder (RODOS dispersion)
Method: A lactose size fraction of 106-150 μm, derived from 100 M lactose (DMV International, Veghel, The Netherlands) was used as excipient. The fraction was prepared by subsequent vibratory sieving (20 minutes in a Fritsch Analysette 3, Idar-Oberstein, Germany) and air jet sieving (10 minutes in an Alpine A200, Augsburg, Germany) of small quantities (approx. 50 g) of the starting material. Micronized Colistin was prepared by fluid energy milling (GfM, Hamburg, Germany), but because the size distribution of the active ingredient was not satisfactory, size reduction of the crystalline material was continued for 26.5 hours in a ball mill (50 g in a container of 750 ml, filled with ceramic balls of different sizes to a filling degree of 67%). The container was placed on a home constructed drive. Size distributions before and after milling in the ball mill were measured with laser diffraction technique (Fraunhofer theory, using Sympatec HELOS Compact, model KA with 100 mm lens) using dry dispersion with a RODOS disperser at 4 bar.

[2] = Laser diffraction analysis of the aerosol cloud from the test inhaler (cyclone); details: 60 l/min, 20 mg per inhalation, lactose fraction 63-106 μm, mean of 6 inhalations
Method: Inhalation experiments with the mixture were performed at 60 l/min with a test inhaler (see FIG. 1), having the same disintegration principle (cyclone) as the Colistin dry powder inhaler (prototype). […]
(§1) The aerosol cloud from the inhaler was characterized with a laser diffraction technique (Sympatec HELOS Compact, model KA with 100 mm lens) using the Fraunhofer theory. A special inhaler adapter was used in order to adjust the required flow rate through the inhaler device. The adapter consisted of a cylindrical chamber with side tubes connecting the adapter at both sides to the housing of the laser diffraction apparatus. The inhaler device was connected to the front of the adapter, whereas the vacuum system was connected to the rear end of the adapter. Thus, a closed system was created through which the flow rate can be controlled very carefully and in which the aerosol cloud passes the laser beam for the measurement. Standard HELOS software was used: start and stop of the measurement was triggered on channel 32 with 0.1% difference in optical signal (compared with the signal during reference measurement). The mass fraction of the dose delivered by the inhaler was not analyzed during these experiments (no particle collector in line with the adapter).
II The physical mixture with 83.3% Colistin was also tested with the test inhaler at 20, 30, 40 and 50 l/min. […]

[3] = Laser diffraction analysis of the aerosol cloud from the Pharmachemie Cyclohaler (ISF inhaler); details: 60 l/min, 10 mg per capsule, six inhalations
From the text: as §1
Pure micronized Colistin was also inhaled with a commercial DPI (Pharmachemie Cyclohaler equals ISF Inhaler equals Novartis Foradil Inhaler, see FIG. 3), using the same (laser diffraction) procedures. Six hard gelatin capsules (no. 3) were filled with 10 mg per capsule and the capsules were sealed before use. Inhalation time was 3 seconds. […]

[4] = primary Colistin particles, RODOS dispersion

## Colistin
[1]; after size reduction in the ball mill (26.5 hours), RODOS dispersion, n=3
  mean diameter (X50-value): 2.14 μm
[1]; after size reduction in the ball mill, RODOS dispersion
  X100-value: 87.0 μm
[1]; before size reduction in the ball mill, RODOS disperser at 4 bar
  mean diameter (X50-value): 6.43 μm
[1]; before size reduction in the ball mill, RODOS dispersion
  X100-value: 51.0 μm
[1]; [4]
  X-50 (μm) From cum. undersize curve: 2.1 μm
  X-90 (μm) From cum. Undersize curve: 31.0 μm
[2]
  X-50 (μm) From cum. undersize curve: 2.3 μm
  X-90 (μm) From cum. Undersize curve: 7.5 μm
[3]
  average median diameter for the aerosol cloud: 18.23 micron
